The target of assay [1] is ALK I1171N/D1203N (Homo sapiens (Human), UniProt Q9UM73, D1203N/I1171N). As to the kind of experiment: Biochemical kinase assay, ALK I1171N/D1203N. As to conditions: apparent inhibitory constant, kinase domain, Morrison equation; read-out: ALK-I1171N-D1203N Ki^app. The procedure:
(§1) First, 250 nL of compound dissolved in DMSO (100-fold of the desired concentration) was dispensed into a 384-well plate. A 12.5 μL substrate solution containing ATP (2 mM) and fluorogenic phosphorylation substrate AQT0101 ([…] for ALK and ROS, AssayQuant) or AQT0104 (26 μM for TRKB, AssayQuant) in buffer (50 mM HEPES pH 7.5, […], 0.5 mM EGTA, 10 mM MgCl2) was added and mixed thoroughly. Then, a 12.5 μL kinase solution containing ALK (1.5 nM, Carna, 08-518), ALK I1171N/D1203N (4 nM, SignalChem, custom-made), ROS1 (0.6 nM, Carma, 08-163), ROS1-G2032R (0.5 nM, SignalChem, R14-121BG), or TRKB-wt (1.5 nM, SignalChem, N17-11G) kinase domains in buffer ([…] pH 7.5, 0.01% Brij-[…], 0.4 mg/mL BSA, 0.5 mM EGTA, and 10 mM MgCl2) was added and mixed thoroughly. The plate was sealed and read by SpectraMax Paradigm at λ=485 nm every 2 minutes for 120 minutes at 30° C. Initial rates of reaction (v) were calculated from the change in fluorescence intensity over time during the initial, linear portion of the reaction. Finally, apparent inhibitory constants (Ki^app) were determined from regression of v and I (inhibitor concentration) to Morrison Equation (E=enzyme concentration): […]
(§2) Compound potency can be interpreted by binning Ki^app values against the targets: bin A for high potency, Ki^app<50 nM; bin B for medium potency, 50 nM≤Ki^app<500 nM; and bin C for low potency, Ki^app≥500 nM. […] “nd” means not determined.

Assay [2] addresses Ba/F3 ETV6-TRKB (Homo sapiens, UniProt Q16620). As to the kind of experiment: Ba/F3 cell proliferation assay, ETV6-TRKB. The format is cell-based. Particulars: Ba/F3 stable cells, 72 hours, CellTiter-Glo; read-out: ETV6-TRKB IC50. In a few lines:
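Growth inhibition after 72 h compound exposure (3-fold series) was measured by CellTiter-Glo in IL-3-independent Ba/F3 cells stably expressing ETV6-TRKB. A four-parameter logistic fit of percent inhibition versus concentration gave IC50.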
Background: Cellular ATP, detected with luciferase, serves as a proxy for viable cell number.

Assay [3] has as its target Ba/F3 EML4-ALK v1 I1171N/D1203N (Homo sapiens (Human), UniProt Q9HC35+Q9UM73, D1203N/I1171N). Put plainly: Ba/F3 cell proliferation assay, EML4-ALK v1 I1171N/D1203N. It is filed as cell-based. As to conditions: for IC50: Ba/F3 stable cells, 72 hours, CellTiter-Glo; for ETV6-TRKB / EML4-ALK v1 I1171N/D1203N: TRKB selectivity, ratio of Ba/F3 IC50 values. In a few lines:
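Viability read by CellTiter-Glo luminescence after 72 h exposure to a 3-fold compound dilution series, with IC50 from four-parameter logistic regression. Cells were Ba/F3 rendered IL-3-independent through retroviral expression of EML4-ALK v1 I1171N/D1203N, puromycin-selected.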

Assay [4] addresses TRKB-wt (Homo sapiens (Human), UniProt Q16620). As to the kind of experiment: Biochemical kinase assay, TRKB-wt. As to conditions: apparent inhibitory constant, kinase domain, Morrison equation; read-out: TRKB-wt Ki^app. The procedure:
as §1, §2

Chain of Ba/F3 EML4-ALK v1 I1171N/D1203N (Q9UM73 other isoform, or with tags, fused parts or gaps I1171N/D1203N): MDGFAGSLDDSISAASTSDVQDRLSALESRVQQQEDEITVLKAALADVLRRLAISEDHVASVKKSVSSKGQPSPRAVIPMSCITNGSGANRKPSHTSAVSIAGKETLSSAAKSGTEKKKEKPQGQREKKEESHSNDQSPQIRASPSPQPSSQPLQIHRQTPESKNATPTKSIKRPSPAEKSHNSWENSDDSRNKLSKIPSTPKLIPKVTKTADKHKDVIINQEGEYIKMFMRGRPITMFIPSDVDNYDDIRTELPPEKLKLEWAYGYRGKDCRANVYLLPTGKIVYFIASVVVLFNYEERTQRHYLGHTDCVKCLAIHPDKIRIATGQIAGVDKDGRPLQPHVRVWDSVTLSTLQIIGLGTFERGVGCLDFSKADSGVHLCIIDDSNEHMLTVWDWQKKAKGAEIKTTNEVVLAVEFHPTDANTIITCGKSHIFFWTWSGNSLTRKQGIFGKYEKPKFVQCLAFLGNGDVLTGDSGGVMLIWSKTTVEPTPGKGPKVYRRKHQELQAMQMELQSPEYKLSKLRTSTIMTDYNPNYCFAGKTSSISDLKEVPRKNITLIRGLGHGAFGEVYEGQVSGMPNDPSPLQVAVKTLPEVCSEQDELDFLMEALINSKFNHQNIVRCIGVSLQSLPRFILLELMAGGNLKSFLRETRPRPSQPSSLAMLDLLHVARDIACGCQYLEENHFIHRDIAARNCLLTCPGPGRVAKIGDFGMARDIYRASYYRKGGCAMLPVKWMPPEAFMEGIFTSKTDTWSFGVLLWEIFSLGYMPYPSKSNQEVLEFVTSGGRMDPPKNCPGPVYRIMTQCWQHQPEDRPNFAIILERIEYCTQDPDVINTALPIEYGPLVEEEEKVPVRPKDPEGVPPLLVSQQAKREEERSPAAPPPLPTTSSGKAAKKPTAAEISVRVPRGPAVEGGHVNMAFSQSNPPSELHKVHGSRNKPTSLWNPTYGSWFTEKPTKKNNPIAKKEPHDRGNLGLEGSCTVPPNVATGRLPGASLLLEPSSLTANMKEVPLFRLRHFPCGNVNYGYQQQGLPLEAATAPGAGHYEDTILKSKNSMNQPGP
Chain of TRKB-wt (Q16620 538-807): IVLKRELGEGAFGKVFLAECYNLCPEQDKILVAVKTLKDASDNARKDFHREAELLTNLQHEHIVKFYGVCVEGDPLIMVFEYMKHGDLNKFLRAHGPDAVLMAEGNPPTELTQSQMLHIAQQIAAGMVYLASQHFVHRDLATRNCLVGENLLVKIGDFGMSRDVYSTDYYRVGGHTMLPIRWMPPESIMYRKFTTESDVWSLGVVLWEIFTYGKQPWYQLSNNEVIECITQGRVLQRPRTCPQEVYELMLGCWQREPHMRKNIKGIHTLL
Chain of Ba/F3 ETV6-TRKB (Q16620 32-822 limits assumed, change not shown): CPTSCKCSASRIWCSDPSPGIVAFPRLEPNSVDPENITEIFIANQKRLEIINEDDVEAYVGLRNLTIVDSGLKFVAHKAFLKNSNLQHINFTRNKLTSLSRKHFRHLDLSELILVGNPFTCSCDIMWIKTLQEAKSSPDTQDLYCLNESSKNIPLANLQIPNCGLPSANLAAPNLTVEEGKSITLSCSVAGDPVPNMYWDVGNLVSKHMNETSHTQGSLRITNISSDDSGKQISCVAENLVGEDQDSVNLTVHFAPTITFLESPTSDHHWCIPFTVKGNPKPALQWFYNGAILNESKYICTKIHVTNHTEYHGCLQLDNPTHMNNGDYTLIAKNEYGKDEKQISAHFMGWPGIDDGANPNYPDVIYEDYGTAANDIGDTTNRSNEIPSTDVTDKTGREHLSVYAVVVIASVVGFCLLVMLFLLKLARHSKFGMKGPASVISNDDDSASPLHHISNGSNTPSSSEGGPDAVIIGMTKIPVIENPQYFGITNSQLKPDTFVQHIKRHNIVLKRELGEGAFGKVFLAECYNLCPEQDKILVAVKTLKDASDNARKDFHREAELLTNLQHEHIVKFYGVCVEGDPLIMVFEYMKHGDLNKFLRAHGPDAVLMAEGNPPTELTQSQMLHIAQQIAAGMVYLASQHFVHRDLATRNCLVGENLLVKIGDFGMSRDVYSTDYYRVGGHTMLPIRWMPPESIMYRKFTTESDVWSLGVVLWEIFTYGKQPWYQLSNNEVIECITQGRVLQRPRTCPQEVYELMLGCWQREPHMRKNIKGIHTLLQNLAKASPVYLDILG
Chain of ALK I1171N/D1203N (Q9UM73 1116-1392 I1171N/D1203N): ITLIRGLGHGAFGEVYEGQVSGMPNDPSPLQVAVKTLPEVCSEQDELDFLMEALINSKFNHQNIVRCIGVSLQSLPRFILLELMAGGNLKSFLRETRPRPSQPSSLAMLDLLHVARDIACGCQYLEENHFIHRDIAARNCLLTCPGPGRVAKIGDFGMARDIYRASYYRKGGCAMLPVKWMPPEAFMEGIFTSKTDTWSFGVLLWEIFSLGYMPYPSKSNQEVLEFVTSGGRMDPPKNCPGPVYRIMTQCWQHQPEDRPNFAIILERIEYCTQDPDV

The IC50 is the midpoint of a concentration-inhibition curve. With `C[C@H]1Oc2cc(cnc2N)-c2c(c(C(=O)N(C)CC(F)(F)F)nn2CC2CC2)Cc2cn(C)nc2-c2ccc(F)cc21` [Example 36, (19R)-22-amino-3-(cyclopropylmethyl)-16-fluoro-N,10,19-trimethyl-N-(2,2,2-trifluoroethyl)-20-oxa-3,4,10,11,23-pentaazapentacyclo[19.3.1.0^2,^6.0^8,^12.0^13,^18]pentacosa-1(24),2(6),4,8,11,13,15,17,21(25),22-decaene-5-carboxamide], the Ki in assay [1] is less than 50 nM; in assay [4], no less than 500 nM. Also, the results for the IC50 in assay [2] and in assay [3] were greater than 500 nM and 50 to 500 nM, respectively. In addition, the “ETV6-TRKB / EML4-ALK v1 I1171N/D1203N” value in assay [3] is given as “A (bin A for very high selectivity, ratio≥30-fold)”.
In the case of `C[C@H]1Oc2cc(cnc2N)-c2c(c(C(=O)N3CC(F)(F)C3)nn2CC2CC2)Cc2cn(C)nc2-c2ccc(F)cc21` [Example 13, {(R)-22-amino-3-(cyclopropylmethyl)-16-fluoro-10-methyl-19-methyl-20-oxa-3,4,10,11,23-pentaazapentacyclo[19.3.1.0^2,^6.0^8,^12.0^13,^18]pentacosa-1(24),2(6),4,8,11,13,15, 17,21(25),22-decaen-5-yl}(3,3-difluoro-1-azetidinyl)methanone], the Ki in assay [1] is less than 50 nM; in assay [4], 50 to 500 nM. For the same molecule, the results for the IC50 in assay [2] and in assay [3] were greater than 500 nM and 50 to 500 nM, respectively. Further, the “ETV6-TRKB / EML4-ALK v1 I1171N/D1203N” value in assay [3] is recorded as “C (bin C for moderate selectivity, ratio≥1 but<10)”.
Turning to `CSc1nn(CC2CC2)c2c1Cc1cn(C)nc1-c1ccc(F)cc1[C@@H](C)Oc1cc-2cnc1N` [Example 56, (R)-3-(cyclopropylmethyl)-16-fluoro-10-methyl-19-methyl-5-(methylthio)-20-oxa-3,4,10,11,23-pentaazapentacyclo[19.3.1.0^2,^6.0^8,^12.0^13,^18]pentacosa-1(25),2(6),4,8,11,13,15,17,21,23-decaen-22-ylamine], the Ki was 50 to 500 nM in assay [1] and no less than 500 nM in assay [4]. In addition, the results for the IC50 in assay [2] and in assay [3] were greater than 500 nM and 50 to 500 nM, respectively. In addition, in assay [3], the “ETV6-TRKB / EML4-ALK v1 I1171N/D1203N” value is listed as “C (bin C for moderate selectivity, ratio≥1 but<10)”.
`C[C@H]1Oc2cc(cnc2N)-c2c(c([S+](C)[O-])nn2CC2CC2)Cc2cn(C)nc2-c2ccc(F)cc21` (stereo partly drawn) [Example 17, (R)-3-(cyclopropylmethyl)-16-fluoro-10-methyl-19-methyl-5-(methylsulfinyl)-20-oxa-3,4,10,11,23-pentaazapentacyclo[19.3.1.0^2,^6.0^8,^12.0^13,^18]pentacosa-1(24),2(6),4,8,11,13,15,17,21(25),22-decaen-22-ylamine]: the Ki was less than 50 nM in assay [1] and 50 to 500 nM in assay [4]. In addition, the IC50 in assay [2] is greater than 500 nM; in assay [3] it was 50 to 500 nM. The “ETV6-TRKB / EML4-ALK v1 I1171N/D1203N” value in assay [3] is “C (bin C for moderate selectivity, ratio≥1 but<10)”.
For `CON(C)C(=O)c1nn(CC2CC2)c2c1Cc1cn(C)nc1-c1ccc(F)cc1[C@@H](C)Oc1cc-2cnc1N` [Example 34, N-methoxy-N-methyl-(R)-22-amino-3-(cyclopropylmethyl)-16-fluoro-10-methyl-19-methyl-20-oxa-3,4,10,11,23-pentaazapentacyclo[19.3.1.0^2,^6.0^8,^12.0^13,^18]pentacosa-1(24),2(6),4,8,11,13,15,17,21(25),22-decaene-5-carboxamide], the Ki in assay [1] was less than 50 nM; in assay [4], 50 to 500 nM. Further, the values for the IC50 in assay [2] and in assay [3] were greater than 500 nM and 0.1 to 50 nM, respectively. The “ETV6-TRKB / EML4-ALK v1 I1171N/D1203N” value in assay [3] is given as “B (bin B for high selectivity, ratio≥10-fold but<30)”.
As to `C[C@H]1Oc2cc(cnc2N)-c2c(c(C(=O)N(C)C)nn2CC2CC2)Oc2cccnc2-c2ccc(F)cc21` [Example 39, N,N-dimethyl-(R)-23-amino-3-(cyclopropylmethyl)-17-fluoro-20-methyl-7,21-dioxa-3,4,12,24-tetraazapentacyclo[20.3.1.0^2,6.0^8,13.0^14,19]hexacosa-1(25),2(6),4,8(13),9,11,14,16,18,22(26),23-undecaene-5-carboxamide], the Ki in assay [1] is less than 50 nM; in assay [4], no less than 500 nM. Besides, the 50% inhibitory concentration (IC50) in assay [2] is greater than 500 nM; in assay [3] it was 0.1 to 50 nM. The “ETV6-TRKB / EML4-ALK v1 I1171N/D1203N” value in assay [3] is recorded as “A (bin A for very high selectivity, ratio≥30-fold)”.
For `C[C@H]1Oc2cc(cnc2N)-c2c(c(C(=O)N(C)C)nn2CC2CCC2)Cc2cn(C)nc2-c2ccc(F)cc21` [Example 33, (19R)-22-amino-3-(cyclobutylmcthyl)-16-fluoro-N,N,10,19-tetramethyl-20-oxa-3,4,10,11,23-pentaazapentacyclo[19.3.1.0^2,^6.0^8,^12.0^13,^18]pentacosa-1(24),2(6),4,8,11,13,15,17,21(25),22-decaene-5-carboxamide], the Ki in assay [1] was less than 50 nM; in assay [4] it was no less than 500 nM. The IC50 in assay [2] is greater than 500 nM; in assay [3] it was 50 to 500 nM. Besides, in assay [3], the “ETV6-TRKB / EML4-ALK v1 I1171N/D1203N” value is recorded as “A (bin A for very high selectivity, ratio≥30-fold)”.
Regarding `CCOC(=O)c1nn(CC2CC2)c2c1Oc1cccnc1-c1ccc(F)cc1[C@@H](C)Oc1cc-2cnc1N` [Example 55, ethyl (20R)-23-amino-3-(cyclopropylmethyl)-17-fluoro-20-methyl-7,21-dioxa-3,4,12,24-tetraazapentacyclo[20.3.1.0^2,^6.0^8,^13.0^14,^19]hexacosa-1(25),2(6),4,8(13),9,11,14,16,18,22(26),23-undecaene-5-carboxylate], the Ki in assay [1] is less than 50 nM; in assay [4] it was no less than 500 nM. The figures for the IC50 in assay [2] and in assay [3] were greater than 500 nM and 50 to 500 nM, respectively. Further, the “ETV6-TRKB / EML4-ALK v1 I1171N/D1203N” value in assay [3] is “B (bin B for high selectivity, ratio≥10-fold but<30)”.
Take `C[C@H]1Oc2cc(cnc2N)-c2c(c(C(N)=O)nn2C2CCC2)Cc2cn(C)nc2-c2ccc(F)cc21` [Example 30, (R)-22-amino-3-cyclobutyl-16-fluoro-10-methyl-19-methyl-20-oxa-3,4,10,11,23-pentaazapentacyclo[19.3.1.0^2,^6.0^8,^12.0^13,^18] pentacosa-1(24),2(6),4,8,11,13,15,17,21(25),22-decaene-5-carboxamide]: the Ki in assay [1] is less than 50 nM; in assay [4] it was 50 to 500 nM. The IC50 in assay [2] was greater than 500 nM; in assay [3], 50 to 500 nM. Besides, in assay [3], the “ETV6-TRKB / EML4-ALK v1 I1171N/D1203N” value was “B (bin B for high selectivity, ratio≥10-fold but<30)”.
In the case of `CC1CCCN1C(=O)c1nn(CC2CC2)c2c1Cc1cn(C)nc1-c1ccc(F)cc1[C@@H](C)Oc1cc-2cnc1N` (stereo partly drawn) [Example 31, {(R)-22-amino-3-(cyclopropylmethyl)-16-fluoro-10-methyl-19-methyl-20-oxa-3,4,10,11,23-pentaazapentacyclo[19.3.1.0^2,^6.0^8,^12.0^13,^18]pentacosa-1(24),2(6),4,8,11, 13,15,17,21(25),22-decaen-5-yl}(2-methyl-1-pyrrolidinyl)methanone], the Ki in assay [1] was less than 50 nM; in assay [4], no less than 500 nM. The IC50 in assay [2] was greater than 500 nM; in assay [3] it was 0.1 to 50 nM. Moreover, in assay [3], the “ETV6-TRKB / EML4-ALK v1 I1171N/D1203N” value is given as “A (bin A for very high selectivity, ratio≥30-fold)”.

Values taken from patent publication US20250326769A1, “HETEROAROMATIC MACROCYCLIC ETHER CHEMOTHERAPEUTIC AGENTS” (Nuvalent, Inc., priority 2022, published 2025).
